For one data set, the system named is c-Met. Nature of the data set: c-Met phosphorylation in EBC-1 cells by western blot. Particulars: 6 h. In kind it is cell-based. On the procedure:
To analyze the effect of the compounds on c-Met phosphorylation, EBC-1 cells were seeded in six well plates and grown to 90% confluence. […] Cells were incubated with the compounds for 6 h at 37 °C in a CO2 incubator. After the incubation, western blot analysis was performed. To investigate GnRH-R protein level, cells were seeded in six well plates and grown to 90% confluence, then western blot analysis was applied.
Bands were visualized via Enhanced Chemiluminescence detection system (Western Lightning ECL Pro, PerkinElmer, Waltham, MA, USA, cat. no.: NEL122001EA).
On the technique in general: A western blot detects proteins with antibodies after separation by electrophoresis.

Another data set concerns the target T1, human pituitary GnRHR (Homo sapiens, UniProt P30968).
T1 construct: Normal human pituitary (anterior lobe) tissue was collected at autopsy; from tissue; host or cells: normal human pituitary (anterior lobe), autopsy tissue, membranes
T1 sequence (P30968 1-328): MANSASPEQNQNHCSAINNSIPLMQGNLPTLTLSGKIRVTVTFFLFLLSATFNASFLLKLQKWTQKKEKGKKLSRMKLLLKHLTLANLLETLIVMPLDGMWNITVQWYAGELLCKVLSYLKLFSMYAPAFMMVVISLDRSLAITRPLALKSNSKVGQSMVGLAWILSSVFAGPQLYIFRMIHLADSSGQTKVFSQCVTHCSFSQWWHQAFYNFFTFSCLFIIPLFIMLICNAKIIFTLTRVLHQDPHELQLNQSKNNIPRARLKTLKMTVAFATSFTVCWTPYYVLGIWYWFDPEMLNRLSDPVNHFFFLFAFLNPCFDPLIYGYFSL
Nature of the data set: Radioligand competition assay, [125I]-[D-Trp6]-GnRH-I displacement, human pituitary membranes. Particulars: inhibition of [125I]-[D-Trp6]-GnRH-I binding to membranes. On the procedure:
(§1) The collection and use of the tissue samples for our studies were approved by the local Institutional Ethics Committee. Normal human pituitary (anterior lobe) tissue was collected at autopsy and the human prostate cancer specimen was obtained from a patient at the time of initial surgical treatment. The ligand competition assay was performed as described previously.
On the technique in general: Displacement assays read how much labelled ligand stays bound in the presence of the test substance.

The subject of data set [1] is primary human skin fibroblast cells. Nature of the data set: CellTiter-Glo cell viability assay on primary skin fibroblast cells. In kind it is cell-based. The conditions noted are these: GnRHR-negative cells, 72 h treatment, read-out: IC50, viability inhibition on primary human skin fibroblast cells. The protocol: Primary human skin fibroblast cells (fibroblast cells) were gifted by the Institute of Genomic Medicine and Rare Disorders, Semmelweis University (Budapest, Hungary). Fibroblast cells were cultured in Dulbecco’s modified Eagle’s medium (DMEM) (Thermo Fisher Scientific, cat. no.: 41965039) supplemented with 10% FBS (Thermo Fisher Scientific), 1% penicillin–streptomycin (Thermo Fisher Scientific, cat. no.: 15070063) and 1% MEM Non-Essential Amino Acids Solution (Thermo Fisher Scientific, cat. no.: 11140035). Cell cultures were grown in vitro at 37 °C, 95% air and 5% CO2 atmosphere.
(§2) Effects of the synthesized compounds on EBC-1 and fibroblast cell viability was measured via CellTiter-Glo® luminescent cell viability assay (Promega, Madison, WI, USA) according to the manufacturer’s instructions. Briefly, cells were plated at 1000 cells/well onto a flat-bottomed, white 96 well plate (BRANDplates, cat. no.: 781965). After 24 h, cells were treated for 72 h with either the desired 4-fold serial diluted compound concentrations or vehicle (0.2% DMSO) control. After the treatment, the luminescence signal was recorded using a microplate reader (BioTek Synergy 2 Multi-Mode Reader, BioTek, Winooski, VT, USA). Dose–response curves (using a non-linear regression model) were generated and IC50 values were determined using Graph Pad Prism 5.02 software (GraphPad Software, San Diego, CA, USA).
(Cellular ATP, detected with luciferase, serves as a proxy for viable cell number.)

Data set [2] in a line: Stability in EMEM cell culture medium at 37 °C (HPLC-UV). In kind it is in vitro ADME. Particulars: for stability in cell culture medium: EMEM, 37 °C, up to 72 h. The protocol:
Stock solutions of compounds in DMSO were diluted to 10 µM in complemented EMEM (Lonza). Samples were incubated for 2, 6, 24, and 72 h at 37 °C. After the incubation, acetonitrile (VWR, cat. no.: 83639.320) was added to the solutions (1:1 ratio, to achieve 50% acetonitrile content). The samples were vortexed and centrifuged (13,000× g, 10 min). Supernatants were measured by HPLC-UV. HPLC method and chromatograms are available in the Supplementary Information. Stability was calculated using the external standard method. Decay curves were generated and half-life was calculated by GraphPad Prism 5.02 software.

For another data set, the system named is EBC-1 NSCLC cells. Nature of the data set: CellTiter-Glo cell viability assay on EBC-1 cells. It is filed as cell-based. The conditions noted are these: for IC50: CellTiter-Glo, 72 h treatment, read-out: IC50, viability inhibition on EBC-1 cells. The protocol:
EBC-1 cell line was obtained from the Japanese Collection of Research Bioresources Cell Bank (JCRB, Solana Beach, CA 92075 USA) and cultured in Eagle’s minimum essential medium (EMEM) (Lonza, Basel, Switzerland, cat. no.: BE12-611F,) supplemented with 1% MycoZap (Lonza, cat. no.: VZA-2012) and 10% fetal bovine serum (FBS) (Thermo Fisher Scientific, Waltham, MA, USA, cat. no.: 10500-064).
as §2

A further data set concerns the target T2, recombinant c-Met kinase (Homo sapiens, UniProt P08581).
T2 construct: purchased ProQinase 0171-0000-1
Nature of the data set: In vitro inhibition of recombinant c-Met kinase (ADP-Glo). In kind it is biochemical. Particulars: recombinant kinase assay, ATP 3.1 µM. The protocol:
Reaction buffer was prepared according to ProQinase’s recommendation [60 mM HEPES, 3 mM MgCl2, 3 mM MnCl2, 3 µM Na3VO4, 1.2 mM DTT (dithiothreitol), and 50 µg/mL PEG20,000, (reagents were obtained from Merck Millipore)]. Enzyme activity was assayed in 384 well, low-volume white microtiter plates (Corning®, Merck Millipore, cat. no.: CLS4513-50EA). Compounds were preincubated with c-Met kinase for 30 min at room temperature and reactions were started by adding the substrate–ATP mixture. Reaction time was 60 min at room temperature. Enzyme reaction was stopped using ADP-Glo™ Kinase Assay (Promega, cat. no.: V6930) according to the manufacturer’s instructions (40 min incubation with ADP-Glo™ Reagent, 30 min incubation with Kinase detection reagent at 25 °C). All measurements were performed using a Synergy 2 Multi-Mode Reader (BioTek, Winooski, VT, USA). Raw enzyme activity values were converted to relative activity data using positive and negative controls.

Another data set deals with T3, prostate cancer GnRHR (Homo sapiens, UniProt P30968).
T3 construct: the human prostate cancer specimen was obtained from a patient at the time of initial surgical treatment; from tissue; host or cells: human prostate cancer surgical specimen, membranes
T3 sequence (P30968 1-328): T1 sequence (P30968 1-328)
Nature of the data set: Radioligand competition assay, [125I]-[D-Trp6]-GnRH-I displacement, human prostate cancer membranes. The conditions noted are these: inhibition of [125I]-[D-Trp6]-GnRH-I binding to membranes. The protocol:
as §1

For the next data set, the system named is EBC-1 cells. Nature of the data set: Galectin puncta assay for lysosomal membrane permeabilization. Particulars: 8 h. It is filed as cell-based. The protocol: EBC-1 cells were seeded on eight well Ibidi® μ-Slide microscopic slides (2 × 10^4 cells/well) and allowed to adhere for 48 h. […] Untreated (0.2% DMSO in EMEM) cells were used as a negative control. Cells were incubated with the compounds for 8 h at 37 °C in a CO2 incubator. Cells were fixed with 4% paraformaldehyde for 10 min and washed twice with PBS (Lonza). Cells were permeabilized with 0.1% (v/v) Triton X-100 PBS solution for 10 min. After blocking (5% v/v BSA in PBS), cells were incubated with anti-galectin 3 (Merck, cat. no.: SAB4501746, dilution: 1:100) and anti-galectin-1 (Santa Cruz Biotechnology, cat. no.: sc-166618, dilution: 1:100) primary antibodies overnight at 25 °C, followed by Alexa-Fluor-488-conjugated (Jackson ImmunoResearch., cat. no.: 111-545-003, dilution: 1:500) and Alexa-Fluor-594-conjugated (Jackson ImmunoResearch, cat. no.: 115-585-003, dilution: 1:250) secondary antibodies for 1 h at 25 °C. DRAQ5 (10 µM) was added to the cells for 15 min. Cells were washed three times with PBS and a few drops of mounting media (Merck Millipore) were added. Images of cells were acquired with a confocal laser microscope (Zeiss Confocal LSM 710). [Objective: Plan-Apochromat 63x/1.40 Oil DIC M27. Pinhole: 1.01 AU. Laser wavelength: 488 nm, 543 nm and 633 nm. Detection wavelength: 504–539 nm; 602–651 nm; 694–758 nm)].

A short description of data set [3]: pH-dependent artificial membrane permeability assay (PAMPA). It is filed as in vitro ADME. On the procedure: An artificial-membrane-based system (BD Gentest™ Pre-Coated PAMPA plate, Corning, cat. no.: 353015) was used to determine the pH-dependent membrane permeability of the compounds. In this method, the protocol provided by the manufacturer was followed with minor modifications. Four different pH values were applied per compound. […] Stock solutions of compounds in DMSO were diluted to 100 µM in each PBS. PBS solutions were loaded into the donor wells, but the acceptor wells were filled with physiological PBS (pH = 7.4). The system was gently shaken (BioSan Thermo-Shaker PST-60HL) for 5 h at 25 °C. […] Calculation formula and the calculated data are available in the Supplementary Information, Section S4. page 11: S4. PAMPA Calculation formula: −ln(1 − CaCe) Pe = 1 1 A ∗ (Vd + Va) ∗ t Ce = (Cd ∗ Vd + Ca∗ Va)/(Vd + Va) R = 1 − Cd ∗ Vd + Ca∗ Va C0 ∗ Vd Pe = permeability (cm/s) R = mass retention (percentage loss of compound due to non-specific binding to the plastic surfaces during the permeation assay) A = membrane area (cm2) c0 = initial donor concentration ca = final acceptor concentration cd = final donor concentration ce = equilibrium concentration t = incubation time (sec) Va = acceptor volume (mL) Vd = donor volume (mL)

For orientation: IC50 means the concentration that gives 50% inhibition. For orientation: half-life means the time in which the quantity being followed falls by half.

Read-outs that look alike come from different tables or passages of the source.

T2 sequence (P08581 25-1390): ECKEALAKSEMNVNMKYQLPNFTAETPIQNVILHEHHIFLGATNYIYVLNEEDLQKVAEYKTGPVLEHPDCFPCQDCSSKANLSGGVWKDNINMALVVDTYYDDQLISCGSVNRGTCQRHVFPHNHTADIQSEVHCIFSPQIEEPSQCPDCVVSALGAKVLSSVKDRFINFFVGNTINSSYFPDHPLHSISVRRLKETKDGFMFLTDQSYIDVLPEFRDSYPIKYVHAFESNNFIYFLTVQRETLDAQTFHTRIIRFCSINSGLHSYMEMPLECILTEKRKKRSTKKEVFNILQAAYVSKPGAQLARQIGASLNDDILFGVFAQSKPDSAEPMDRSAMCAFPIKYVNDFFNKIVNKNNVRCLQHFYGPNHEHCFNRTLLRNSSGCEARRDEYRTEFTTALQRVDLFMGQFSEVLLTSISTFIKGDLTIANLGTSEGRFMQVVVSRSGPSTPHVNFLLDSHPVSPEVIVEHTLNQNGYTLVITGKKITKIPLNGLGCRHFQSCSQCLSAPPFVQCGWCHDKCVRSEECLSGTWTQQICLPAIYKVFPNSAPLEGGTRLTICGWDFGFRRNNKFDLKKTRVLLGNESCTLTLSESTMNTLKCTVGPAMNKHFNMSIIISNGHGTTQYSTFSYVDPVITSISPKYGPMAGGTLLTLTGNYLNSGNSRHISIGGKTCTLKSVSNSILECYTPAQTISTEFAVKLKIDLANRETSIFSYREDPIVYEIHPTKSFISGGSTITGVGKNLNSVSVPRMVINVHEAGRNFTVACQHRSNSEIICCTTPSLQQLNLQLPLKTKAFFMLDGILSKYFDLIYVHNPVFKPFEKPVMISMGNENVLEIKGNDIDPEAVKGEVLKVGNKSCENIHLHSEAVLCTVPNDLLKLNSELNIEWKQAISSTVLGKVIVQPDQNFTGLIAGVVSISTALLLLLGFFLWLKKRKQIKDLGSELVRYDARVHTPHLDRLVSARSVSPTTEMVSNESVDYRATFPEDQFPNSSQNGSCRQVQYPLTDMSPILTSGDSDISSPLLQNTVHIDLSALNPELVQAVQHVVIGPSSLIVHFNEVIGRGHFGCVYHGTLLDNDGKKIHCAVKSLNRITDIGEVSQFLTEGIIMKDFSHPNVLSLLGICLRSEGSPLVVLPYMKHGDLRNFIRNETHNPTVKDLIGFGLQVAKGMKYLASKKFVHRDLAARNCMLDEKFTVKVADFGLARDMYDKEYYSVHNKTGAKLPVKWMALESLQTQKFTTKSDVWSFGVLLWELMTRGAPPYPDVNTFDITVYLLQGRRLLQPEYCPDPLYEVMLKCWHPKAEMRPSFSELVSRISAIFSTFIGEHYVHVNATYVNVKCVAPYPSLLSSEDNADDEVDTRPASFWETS

With `CC(C)C[C@H](NC(=O)[C@@H](CCCCNC(=O)CCCC(=O)OCCN1CCC(n2cc(-c3cnc(N)c(OC(C)c4c(Cl)ccc(F)c4Cl)c3)cn2)CC1)NC(=O)[C@H](Cc1ccc(O)cc1)NC(=O)[C@H](CO)NC(=O)[C@H](Cc1c[nH]c2ccccc12)NC(=O)[C@H](Cc1c[nH]cn1)NC(=O)[C@@H]1CCC(=O)N1)C(=O)N[C@@H](CCCNC(=N)N)C(=O)N1CCC[C@H]1C(=O)NCC(N)=O` (stereo partly drawn) [[D-Lys^6(MJ55*)]–GnRH-I], the “inhibition of c-Met phosphorylation in EBC-1 cells” value (“inhibition of c-Met phosphorylation” for short) in the data set on c-Met (100 nM) is on record as “blocked c-Met phosphorylation”. The IC50 at human pituitary GnRHR was 21.7 ± 1.4 nM; in data set [1], 3000 nM; in the data set with EBC-1 NSCLC cells, 90 nM; at recombinant c-Met kinase, around 147 nM; on prostate cancer GnRHR, 29.7 ± 3.1 nM. This compound showed a half-life in [2] (half-life of the ester bond / conjugate in EMEM) of around 8 h.
In the case of `C[C@@H](Oc1cc(-c2cnn(C3CCNCC3)c2)cnc1N)c1c(Cl)ccc(F)c1Cl` [crizotinib*], the IC50 in data set [1] (Homo sapiens, Skin fibroblast) amounted to 2600 nM; in the data set on EBC-1 NSCLC cells (Homo sapiens, EBC-1), 28 nM.
In the case of `CC(C)C[C@H](NC(=O)[C@@H](CCCCNC(=O)CCCC(=O)N1CCC(n2cc(-c3cnc(N)c(OC(C)c4c(Cl)ccc(F)c4Cl)c3)cn2)CC1)NC(=O)[C@H](Cc1ccc(O)cc1)NC(=O)[C@H](CO)NC(=O)[C@H](Cc1c[nH]c2ccccc12)NC(=O)[C@H](Cc1c[nH]cn1)NC(=O)[C@@H]1CCC(=O)N1)C(=O)N[C@@H](CCCNC(=N)N)C(=O)N1CCC[C@H]1C(=O)NCC(N)=O` (mixture of isomers) [[D-Lys^6(crizotinib*)]–GnRH-I], the “inhibition of c-Met phosphorylation” value with c-Met (100 nM) is “no significant inhibitory effect”; with c-Met (1 µM), “moderate”; in the data set on c-Met (10 µM) it was “abolished”. For the same compound, the figures for the half-maximal inhibitory concentration (IC50) at human pituitary GnRHR, at recombinant c-Met kinase and on prostate cancer GnRHR were 34.6 ± 4.2 nM, 163 nM and 39.5 ± 1.7 nM, respectively. Besides, the galectin puncta formation result with EBC-1 cells (0.1 µM) is “negligable”; in the data set on EBC-1 cells (1 µM), “clearly detectable”; in the data set with EBC-1 cells (10 µM and 100 µM), “more and more significant”. The PAMPA membrane permeability entry in data set [3] (PAMPA, pH 4.8) is “not to be membrane-permeable”. In addition, the “viability inhibition effect on EBC-1 cells” value in the data set on EBC-1 NSCLC cells (highest 10 µM concentration) was “only a moderate effect”; in the data set with EBC-1 NSCLC cells (submicromolar range), “did not show any significant effect”.
As to `CC(C)C[C@H](NC(=O)[C@@H](CCCCN)NC(=O)[C@H](Cc1ccc(O)cc1)NC(=O)[C@H](CO)NC(=O)[C@H](Cc1c[nH]c2ccccc12)NC(=O)[C@H](Cc1cnc[nH]1)NC(=O)[C@@H]1CCC(=O)N1)C(=O)N[C@@H](CCCNC(=N)N)C(=O)N1CCC[C@H]1C(=O)NCC(N)=O` [[D-Lys^6]–GnRH-I, reference compound], in [2], the “stability in cell culture medium” value was “stable”.
With `CC(Oc1cc(-c2cnn(C3CCN(CCO)CC3)c2)cnc1N)c1c(Cl)ccc(F)c1Cl` (centres unmarked) [MJ55*], in the data set with c-Met (100 nM), the “inhibition of c-Met phosphorylation” value is “completely inhibited”. Also, the IC50 in [1] (Homo sapiens, Skin fibroblast) amounted to 2600 nM; with EBC-1 NSCLC cells (Homo sapiens, EBC-1) it was 23 nM; at recombinant c-Met kinase, 39 nM. The “stability in cell culture medium” value in [2] was “stable”. In data set [3] (early endosome-/lysosome-like pH (pH = 6.0 and 4.8)), the PAMPA permeability entry is on record as “near zero”.
`Cn1c(=O)c2c(ncn2C)n(C)c1=O` [caffeine, reference compound]: the “PAMPA permeability over the investigated pH range” value in data set [3] (PAMPA) is reported as “remained constant”.

The record behind these values is article PMC6888004 (International Journal of Molecular Sciences, 2019).
